Data set [1] has as its system gram-positive bacteria and gram-negative bacteria. Particulars: due to the outer cell membrane; cited from earlier work.
Data set [2] relates to E. faecalis VSE: QC (MMX 101, ATCC 29212). In words: MIC screening, vancomycin vs vancomycin/peptide conjugates. Particulars: Enterococcus faecalis, ATCC29212. The format is cell-based. The source says: (§1) Vancomycin was conjugated to a variety of antibacterial peptides and screened against (a) resistant strains of gram-positive bacteria and b) gram-negative bacteria. See FIG. 20, FIG. 21, FIG. 22, and Table 3.

Data set [3] relates to E. faecalis VRE (Van A) (MMX 486). The data set is described as above. It is filed as cell-based. Particulars: Enterococcus faecalis.
Text: as §1

For data set [4], the system named is K. pneumoniea PSSP (MMX 1195, ATCC 49619). Described as above. It is filed as cell-based.
Text: as §1

Data set [5] has as its system A. baumannii Wild-type (MMX 1630, ATCC 19606). Described as above. The format is cell-based. The note with it: Acinetobacter baumannii, ATCC19606.
Text: as §1

For data set [6], the system named is E. faecalis VRE (Van B) (MMX 202, ATCC 51299). Described as above. It is filed as cell-based. The note with it: Enterococcus faecalis.
Text: as §1

The test system of data set [7] is K. pneumoniea KPC-1 (MMX 6902, ATCC BAA-1705). The description is as above. The format is cell-based.
Text: as §1

Data set [8] concerns BT-474 cells (mammary gland cancer cells). Put plainly: Screening of genistein antibody-drug conjugate against BT-474 cells. The format is cell-based. The note with it: tested as ADC of genistein. The source says: An antibody-drug conjugate (ADC) of genistein was screened against BT-474 cells (mammary gland cancer cells).
For data set [9] the following is noted: cited from earlier work.

Structures are written as SMILES. ≈ marks a conversion by molar mass, not a printed value.

As a reminder, the MIC is the least concentration at which growth counts as inhibited. The low end stands for a more susceptible organism, the high end for a less susceptible organism. Turning to `CN[C@H](CC(C)C)C(=O)N[C@H]1C(=O)N[C@@H](CC(N)=O)C(=O)N[C@H]2C(=O)N[C@H]3C(=O)N[C@H](C(=O)N[C@H](C(=O)O)c4cc(O)cc(O)c4-c4cc3ccc4O)[C@H](O)c3ccc(c(Cl)c3)Oc3cc2cc(c3O[C@@H]2O[C@H](CO)[C@@H](O)[C@H](O)[C@H]2O[C@H]2C[C@](C)(N)[C@H](O)[C@H](C)O2)Oc2ccc(cc2Cl)[C@H]1O` [vancomycin], the “activity against gram-negative bacteria” value in [1] is given as “not active”. Further, the minimal inhibitory concentration (MIC) in data set [2] is 4 µg/mL (≈ 2.76 µM); in data set [3], more than 64 µg/mL; in data set [4], 0.25 µg/mL (≈ 0.173 µM); in data set [5], more than 64 µg/mL; in data set [6], 16 µg/mL (≈ 11 µM); in data set [7], more than 64 µg/mL.
Broadly, the pKa is the pH at which an ionisable group is half protonated. For `N[C@@H](C[SeH])C(=O)O` [selenocysteine], in data set [8], the toxicity to cells entry is “not toxic to cells”. Besides, the pKa in data set [9] is given as 5.47.
Consider `N[C@@H](CS)C(=O)O` [cysteine], for which, in [9], the pKa is 8.14.

These data come from patent US10117948B2, “Selective arylation of dichalcogenides in biomolecules” (priority 2015, dated 2018).
